# Patent US20160166569A1, “METHOD FOR TREATING SKIN THICKENING” (GALDERMA RESEARCH & DEVELOPMENT, priority 2013, published 2016)
# Like-named read-outs stand apart in the source and are kept apart here.
# System: UV-induced skin thickening
# Settings: for other skin disorders induced by UV-irradiation (low grade of erythema or flaking, white raised area on skin, wrinkling): compared to vehicle control
# Experimental: Albino hairless SKHI-hr mice (36/sex/group) were treated for 40 weeks with UVR and brimonidine gel or vehicle according to the design in Table 11. […] Topical treatments were performed approximately one hour before UVR on Monday, Wednesday and Friday of each week and approximately one hour after UVR Tuesday and Thursday of each week.
# N/N=Total number of observations/number of mice with observation
structure (smiles),measurement,setting,value
"Brc1c(NC2=NCCN2)ccc2nccnc12 [brimonidine, (5-bromo-quinoxalin-6-yl)-(4,5-dihydro-1H-imidazol-2-yl)-amine]","UV-induced skin thickness, statistical effect",0.18% (w/w) topical,did not statistically reduce
same,incidence of skin thickening compared to the UV control group,0.18% (w/w) topical,observably lower
same,"UV-induced skin thickness, statistical effect compared to the UV control group",1% (w/w) topical,statistically reduced
same,"other skin disorders induced by UV-irradiation (low grade of erythema or flaking, white raised area on skin, wrinkling)",1% (w/w) topical,reduced
same,"UV-induced skin thickness, statistical effect compared to the UV control group",2% (w/w) topical,statistically reduced
same,"other skin disorders induced by UV-irradiation (low grade of erythema or flaking, white raised area on skin, wrinkling)",2% (w/w) topical,reduced
same,skin thickening or other skin disorders,"mice exposed to UV radiation, summary statement",significant reduction
same,UV-induced skin thickening,"topical application at 0.18%, 1% and 2% (w/w), UVR 600 RBU/week",dose-dependent reduction
